Reference: patent EP3587416A1, “2-OXOPIPERIDIN-3-YL DERIVATIVES AND USE THEREOF” (Institut Univ. de Ciència i Tecnologia, S.A., priority 2018, dated 2020)
Values joined by “and” are separate entries in the source; they are usually repeats but may differ in a detail not shown here. Equal entries are not always repeated.

Tests used:
[1] = target: T1, CNA-CF-PRIEIT interaction (Homo sapiens, UniProt Q08209); assay: Fluorescence polarization assay, disruption of the CNA-CF-PRIEIT interaction (Example 20); format: binding; conditions: 50 µM compound, 5 µM human CNAα, 30 nM CF-PRIEIT; mean of triplicates
T1 construct: human CNAα (amino acids 2-347)
Experimental: Compounds were analyzed for their potential to disrupt the interaction between the human catalytic domain of the calcineurin Aα subunit (CNAα) and the NFATc2-derived PRIEIT peptide. For this purpose we used Flourescence Polarization (FP) technique described in Mulero et al, 2009 (J. Biol. Chem.284:9394-9401). Briefly, to identify disruptors of the CNA-PRIEIT interaction, 5 µM of human CNAα (amino acids 2-347) is preincubated with 50 µM of each hit compound in OptiPlate black 384-well flat-bottom plates (PerkinElmer Life Sciences) for 15 min at room temperature. Then, carboxyfluorescein (CF)-tagged NFATc2-derived PRIEIT peptide (CF-PRIEIT, 30 nM) is added to each well and incubated for 15 more min at room temperature. Each compound has been analyzed once with triplicates. FP measurements were performed using a Victor™ X5 2030 Multilabel Reader (PerkinElmer Life Sciences) with excitation and emission wavelengths of 485 nm and 535 nm, respectively. The fluorescent polarization of the free CF-peptide was considered 0% binding and the binding of CNA to the CF-PRIEIT peptide as 100% binding. Accordingly, the capacity of the compound to disrupt CNA-CF-PRIEIT interaction was measured. None of them displace the CF-PRIEIT peptide from the CNA-PRIEIT interaction (Table 3). Interaction disruption values are less than 30%. […] Data is given as mean ± standard deviation (SD).

[2] = target: T2, CN-PRIEIT interaction (Homo sapiens, UniProt Q08209); assay: Fluorescence polarization competition binding assay, CF-SPRIEIT bound to CNA (Example 21); conditions: 6 µM CNA, 30 nM CF-SPRIEIT, no competitor = 100%
T2 construct: recombinant human CNAD (amino acids 2-347) fused to glutathione S-transferase; GST (glutathione S-transferase); made in house; host or cells: bacteria
Experimental: INK compounds were analyzed for their ability to disrupt CN-PRIEIT interaction using a fluorescence polarization assay. This biochemical assay requires recombinant human CNAD (amino acids 2-347) fused to glutathione S-transferase (GST-CN), which was expressed and purified from bacteria, and a NFATc2-derived PRIEIT peptide labeled with carboxyfluorescein (CF), CF-PRIEIT. Competition binding assays of INK compounds on the interaction of CN with the CF-NFATc2-derived PRIEIT peptide were performed by fluorescence polarization. Briefly, 6 µM of CNA was incubated in the absence (positive control of interaction) or in the presence of 50 µM or 10 µM of competitor compound prior to addition of 30 nM of CF-SPRIEIT peptide. VIVIT peptide was included as positive control of interaction disruption ability. Data is represented as mean percentage of CF-SPRIEIT bound to CNA (± SEM) of 2 experiments performed in triplicates. Signal in the absence of competing peptide was considered as 100% of CF-SPRIEIT bound to CNA. Table 4: Functional effect of pair related structure compounds on NFATc activation

[3] = system: NFATc activation in HEK 293T cells; assay: 3xNFAT-luc dual-luciferase reporter assay of NFATc activation; format: cell-based, human; conditions: Io/PMA/CaCl2 stimulation, inhibition at least at 100, 50 and 20 µM (Figure 1)
Experimental: • Figure 1. Effect of INK compounds on NFATc activation in HEK 293T cells. Cells were transfected with 3xNFAT-luc reporter gene, treated with each compound at 0 µM / 0.02 µM / 0.2 µM / 1 µM / 5 µM/ 20 µM / 50 µM /100 µM (increasing concentrations of the compounds are represented in the graph from left to right) for 2 hours. Then, cells were calcium stimulated with ionomycin (1 µM), PMA (20 nM) and CaCl2 (10 mM) for 4 hours and luciferase activity was analyzed following the dual luciferase reporter assay manufacters' indications and a luminometer (Victor X5 plate reader form Perin-Elmer). […] CN activity towards the RII peptide was analyzed in the absence (positive control of CN activity) or in the presence of each compound at 50 µM, or of 50 µM of LxVP peptide (positive control of CN activity inhibition). […]
To determine the ffect of INK compounds on NFATc activation, HEK 293T cells were transfected with 3xNFAT-luc reporter gene and Renilla-luc plasmid as control of gene transfection. […] Then, cells were treated with compounds of formula (I) at several concentrations for 2 hours and light units analyzed following manufacture's protocol of the dual-luciferase reporter assay system (Figure 1, Functional effect of pair related structure compounds on NFATc activation).

T1 sequence (Q08209 2-347): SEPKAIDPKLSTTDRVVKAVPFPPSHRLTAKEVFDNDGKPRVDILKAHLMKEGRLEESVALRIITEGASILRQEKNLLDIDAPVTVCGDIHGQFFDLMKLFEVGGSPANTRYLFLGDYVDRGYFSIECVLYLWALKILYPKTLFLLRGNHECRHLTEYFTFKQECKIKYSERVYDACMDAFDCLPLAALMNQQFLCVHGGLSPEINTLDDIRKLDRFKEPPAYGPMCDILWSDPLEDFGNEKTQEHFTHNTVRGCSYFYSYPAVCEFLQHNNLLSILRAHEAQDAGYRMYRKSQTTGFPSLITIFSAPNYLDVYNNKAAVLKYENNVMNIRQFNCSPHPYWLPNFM
T2 sequence (Q08209 2-347): as above

Row | SMILES | inhibition at 50 µM [1] | other results
1 | COc1ccccc1-c1ccc(N2CCCC(NS(=O)(=O)c3cc(Cl)c(Cl)s3)C2=O)c(F)c1 (stereo not shown) [IUCT-0460, 4,5-Dichloro-N-(1-(3-fluoro-2'-methoxy-[1,1'-biphenyl]-4-yl)-2-oxopiperidin-3-yl)thiophene-2-sulfonamide] | 6.53% | 
2 | COc1ccccc1-c1ccc(N2CCCC(NS(=O)(=O)c3c(C)noc3C)C2=O)c(F)c1 (stereo not shown) [IUCT-0461, N-(1-(3-fluoro-2'-methoxy-[1,1'-biphenyl]-4-yl)-2-oxopiperidin-3-yl)-3,5-dimethylisoxazole-4-sulfonamide] | 11.1% | 
3 | COc1ccccc1-c1ccc(N2CCCC(NS(=O)(=O)c3ccc4c(c3)OCO4)C2=O)c(F)c1 (stereo not shown) [IUCT-0462, N-(1-(3-fluoro-2'-methoxy-[1,1'-biphenyl]-4-yl)-2-oxopiperidin-3-yl)benzo[d][1,3]dioxole-5-sulfonamide] | 25.7% | 
4 | COc1ccccc1-c1ccc(N2CCCC(NS(=O)(=O)c3ccc(-c4ccccn4)s3)C2=O)c(F)c1 (stereo not shown) [IUCT-0463, N-(1-(3-fluoro-2'-methoxy-[1,1'-biphenyl]-4-yl)-2-oxopiperidin-3-yl)-5-(pyridin-2-yl)thiophene-2-sulfonamide] | 15.8% | 
5 | COc1ccccc1-c1ccc(N2CCCC(NS(=O)(=O)c3cc4ccccc4o3)C2=O)c(F)c1 (stereo not shown) [IUCT-0464, N-(1-(3-fluoro-2'-methoxy-[1,1'-biphenyl]-4-yl)-2-oxopiperidin-3-yl)benzofuran-2-sulfonamide] | 25.8% | Relative interaction (%) Mean ([2]; 10 µM competitor): 93,8%; Relative interaction (%) Sample at 10 µM ([2]; 10 µM competitor, single replicate): 96,8% and 92,3% and 92,4%; Relative interaction (%) Mean ([2]; 50 µM competitor): 83,2%; Relative interaction (%) Sample at 50 µM ([2]; 50 µM competitor, single replicate): 79,0% and 87,7% and 82,9%; NFATc activation [3]: strongly inhibits
6 | COc1ccccc1-c1ccc(N2CCCC(N(CC#N)S(=O)(=O)c3cc(Cl)c(Cl)s3)C2=O)c(F)c1 (stereo not shown) [IUCT-0465, 4,5-Dichloro-N-(cyanomethyl)-N-(1-(3-fluoro-2'-methoxy-[1,1'-biphenyl]-4-yl)-2-oxopiperidin-3-yl)thiophene-2-sulfonamide] | 13.8% | 
7 | CCOC(=O)CN(C1CCCN(c2ccc(-c3ccccc3OC)cc2F)C1=O)S(=O)(=O)c1ccc2c(c1)OCO2 (stereo not shown) [IUCT-0466, Ethyl N-(benzo[d][1,3]dioxol-5-ylsulfonyl)-N-(1-(3-fluoro-2'-methoxy-[1,1'-biphenyl]-4-yl)-2-oxopiperidin-3-yl)glycinate] | 16.7% | 
8 | CCOC(=O)CN(C1CCCN(c2ccc(-c3ccccc3OC)cc2F)C1=O)S(=O)(=O)c1ccc(-c2ccccn2)s1 (stereo not shown) [IUCT-0469, Ethyl N-(1-(3-fluoro-2'-methoxy-[1,1'-biphenyl]-4-yl)-2-oxopiperidin-3-yl)-N-((5-(pyridin-2-yl)thiophen-2-yl)sulfonyl)glycinate] | 29.3% | 
